According to patent publication US20230234920A1, “Azirine Containing Compounds as Anti-Angiogenesis Agents and a Process for the Preparation Thereof” (COUNCIL OF SCIENTIFIC & INDUSTRIAL RESEARCH, priority 2020, published 2023):

System: HUVECs
Test: Capillary-like tube formation assay (tubulogenesis)
Format: cell-based, human
Settings: for IC50: Homo sapiens, HUVEC, anti-angiogenic activity, read-out: IC50 value; for remarks: remark on IC50 versus sunitinib
Procedure: FIG. 2 represents effect of Compound 1 on capillary tube formation of HUVECs. Endothelial cells in Matrigel were incubated with ECM basal medium in the presence of compound 1 at the indicated concentrations for 6 h. Cell viability was assessed by Calcein-AM dye added few min. before the completion of 6 h. then photographs at 10×magnification were taken using an inverted microscope. The tubule length of HUVECs was quantified by Leica QWin software. Tubule network formation is expressed as a percentage of that vehicle (0.1% DMSO) treated cells (control).
FIG. 9 represents effect of racemic mixture (chiral isomer 1-1 and chiral isomer 2-1) of Compound 1 on capillary tube formation of HUVECs. Endothelial cells seeded in matrigel were incubated at the indicated concentrations of compound 1 racemic mixtures (1-1 and 2-1) with ECM basal medium for 6 h. Calcein-AM treatment was added to the ECs few minutes before completion of 6 h and pictures were captured using an inverted microscope at 10×magnification. The tubular structures of HUVECs were measured using Leica QWin software and tubulogenesis was expressed as a % of that vehicle (0.1% DMSO) treated cells (control) well.
HUVEC cells were incubated with or without sunitinib (20 nM) for 6 h at indicated concentrations of chiral isomers of Compound 1 (1-1 and 2-1). Photographs were taken using an inverted microscope at 10×magnification after Calcein-AM treatment to the ECs few minutes before completion of 6 h. The tubule length of HUVECs was quantified by Leica QWin software represented as a % of that vehicle (0.1% DMSO) treated cells (control) well.
To examine the effect of Compound 1 on angiogenesis, capillary tube formation assay was performed on regular or reduced growth factor Matrigel, taking VEGF (50 ng/mL) treated cells as a positive control and sunitinib (50 nM) as a negative control (FIG. 2). HUVECs seeded onto the matrigel with compound 1 at different concentrations of (10 μM, 5 μM, 1 μM, 800 nM, 500 nM, 250 nM, 125 nM, 75 nM, 50 nM, 25 nM and 10 nM) were incubated for six hours.
HUVECs (Human Umbilical Vein Endothelial Cells) were seeded onto the pre-coated matrigel (CORNING; 354230) in 96 wells plate at the rate of 11000 cells/well in incomplete ECM basal medium. Control group received vehicle, VEGF at 50 ng/mL as a positive and sunitinib at 50 nM as a negative control were used. Compound 1 at different dose concentrations (10 μM, 5 μM, 1 μM, 800 nM, 500 nM, 250 nM, 100 nM, 75 nM, 50 nM and 25 nM) were employed on seeded HUVECs in incomplete medium. Post 6 h of incubation Calcein-AM (Invitrogen) was added to all the respective groups and then the tubule pattern was observed and photographs were taken using an inverted fluorescent microscope (DM 6000, Leica Microsystems, USA). Relative tubule lengths were measured using Leica Q-Win software version 3.5.1. (Leica Microsystems, Switzerland).

[1] = endothelial tubule network assay

Compound	IC50 [1] [µM]	remarks	IC50 value (endothelial tubule network assay, result in words)
CCC(C)OC(=O)C1N=C1CCc1ccc(OC)cc1 (centres unmarked) [Compound 22, sec-Butyl 3-(4-methoxyphenethyl)-2H-azirine-2-carboxylate]	0.6		
CCOC(=O)C1N=C1CCc1ccc(I)cc1 (centres unmarked) [Compound 16, Ethyl 3-(4-iodophenethyl)-2H-azirine-2-carboxylate]	0.8		
CCOC(=O)C1N=C1CCc1ccc(Br)cc1 (centres unmarked) [Compound 15, Ethyl 3-(4-bromophenethyl)-2H-azirine-2-carboxylate]	0.8		
CCCCOc1ccc(CCC2=NC2C(=O)OCC)cc1 (centres unmarked) [Compound 32, Ethyl 3-(4-butoxyphenethyl)-2H-azirine-2-carboxylate]	0.05	comparable to sunitinib	
CCOC(=O)C1N=C1CCc1ccc2c(c1)CCO2 (centres unmarked) [Compound 39, Ethyl 3-(2-(2,3-dihydrobenzofuran-5-yl)ethyl)-2H-azirine-2-carboxylate]	2.5		
CCOC(=O)C1N=C1CCc1ccccc1 (centres unmarked) [Compound 6, Ethyl 3-phenethyl-2H-azirine-2-carboxylate]	5		
C=Cc1ccc(CCC2=NC2C(=O)OCC)cc1 (centres unmarked) [Compound 36, Ethyl 3-(4-vinylphenethyl)-2H-azirine-2-carboxylate]	0.25		
CCOC(=O)C1N=C1CCc1cn(C(=O)OC(C)(C)C)c2ccccc12 (centres unmarked) [Compound 38, tert-Butyl-3-(2-(2-(ethoxycarbonyl)-2H-azirin-3-yl)ethyl)-1H-indole-1-carboxylate]	0.075	comparable to sunitinib	
CCOC(=O)C1N=C1CCc1ccc(C#N)cc1 (centres unmarked) [Compound 31, Ethyl 3-(4-cyanophenethyl)-2H-azirine-2-carboxylate]	0.25		
CCCCCCCCOC(=O)C1N=C1CCc1ccc(OC)cc1 (centres unmarked) [Compound 29, Octyl 3-(4-methoxyphenethyl)-2H-azirine-2-carboxylate]	0.25		
CCOC(=O)C1N=C1CCC=C(C)C (centres unmarked) [Compound 4, Ethyl 3-(4-methylpent-3-en-1-yl)-2H-azirine-2-carboxylate]			Not Active
CCOC(=O)C1N=C1CCc1ccc(C(C)(C)C)cc1 (centres unmarked) [Compound 9, Ethyl 3-(4-(tert-butyl)phenethyl)-2H-azirine-2-carboxylate]	0.55		
COC(=O)C1N=C1CCc1ccc(OC)cc1 (centres unmarked) [Compound 14, Methyl 3-(4-methoxyphenethyl)-2H-azirine-2-carboxylate]	0.75		
CCOC(=O)C1N=C1CCCCc1ccc2c(c1)CCO2 (centres unmarked) [Compound 42, Ethyl 3-(4-(2,3-dihydrobenzofuran-5-yl)butyl)-2H-azirine-2-carboxylate]	0.025	comparable to sunitinib	
CCOC(=O)C1N=C1CCCc1ccc2c(c1)CCO2 (centres unmarked) [Compound 37, Ethyl-3-(3-(2,3-dihydrobenzofuran-5-yl)propyl)-2H-azirine-2-carboxylate]	0.05	comparable to sunitinib	
CCOC(=O)C1N=C1CC/C=C(\C)CCC=C(C)C (centres unmarked) [Compound 5, Ethyl (E)-3-(4,8-dimethylnona-3,7-dien-1-yl)-2H-azirine-2-carboxylate]	0.35		
CCOC(=O)C1N=C1CCCc1ccc2c(c1)CCCO2 (centres unmarked) [Compound 45, Ethyl 3-(3-(chroman-6-yl)propyl)-2H-azirine-2-carboxylate]	0.1	comparable to sunitinib	
CCOC(=O)C1N=C1CCC1CCCO1 (centres unmarked) [Compound 30, Ethyl 3-(2-(tetrahydrofuran-2-yl)ethyl)-2H-azirine-2-carboxylate]	0.25		
COc1ccc(CCC2=NC2C(=O)OC(C)C)cc1 (centres unmarked) [Compound 20, Isopropyl 3-(4-methoxyphenethyl)-2H-azirine-2-carboxylate]	0.75		
CCOC(=O)C1N=C1CCc1ccc(C)cc1 (centres unmarked) [Compound 7, Ethyl 3-(4-methylphenethyl)-2H-azirine-2-carboxylate]	4		
C=CCOC(=O)C1N=C1CCc1ccc(OC)cc1 (centres unmarked) [Compound 26, Allyl 3-(4-methoxyphenethyl)-2H-azirine-2-carboxylate]	0.5		
